Assay results: patent US20120058499A1, “Bioluminescent Detection of Protease Activity” (priority 2010, published 2012)

Key:
AMSH = biological target: T1, AMSH (Homo sapiens, UniProt O95630); assay: Platform comparison of DUB substrates, signal to background; format: biochemical; conditions: DUB 10 nM; signal at 30 minutes; Ub-LUC 100 nM, DUB-Glo substrate 20 μM, Ub-AMC/Ub-rho 250 nM
T1 sequence (O95630 1-424): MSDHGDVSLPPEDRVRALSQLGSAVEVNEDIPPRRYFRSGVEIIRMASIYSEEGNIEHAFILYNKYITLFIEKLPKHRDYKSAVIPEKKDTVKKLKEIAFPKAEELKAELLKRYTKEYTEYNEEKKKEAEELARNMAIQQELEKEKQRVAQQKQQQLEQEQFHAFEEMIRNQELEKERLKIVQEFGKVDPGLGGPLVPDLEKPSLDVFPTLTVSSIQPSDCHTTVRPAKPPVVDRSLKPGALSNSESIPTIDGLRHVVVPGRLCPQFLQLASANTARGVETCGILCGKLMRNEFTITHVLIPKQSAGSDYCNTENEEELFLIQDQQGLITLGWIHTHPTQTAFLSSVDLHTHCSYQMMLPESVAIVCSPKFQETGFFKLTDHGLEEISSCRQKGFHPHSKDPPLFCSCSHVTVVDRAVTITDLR
Description: (§1) For Ub-AMC and Ub-Rhodamine110, all enzymes were diluted into 50 mM Tris, pH 8.0, 5 mM DTT, 0.05% CHAPS to a final concentration of 10 nM. […] Either Ub-AMC or Ub-Rhodamine110 (final reaction concentration equal to 250 nM) were diluted into 50 mM Tris, pH 8.0, 5 mM DTT, 0.05% (w/v) CHAPS. […] For Ub-Rhodamine110, fluorescence was monitored with filters corresponding to excitation at 485 nm and emission at 531 nm.

Ataxin3-like = biological target: T2, Ataxin3-like (Homo sapiens, UniProt Q9H3M9); assay: as above; format: biochemical; conditions: DUB 10 nM; signal at 30 minutes; Ub-LUC 100 nM, DUB-Glo substrate 20 μM, Ub-AMC/Ub-rho 250 nM
T2 sequence (Q9H3M9 1-355): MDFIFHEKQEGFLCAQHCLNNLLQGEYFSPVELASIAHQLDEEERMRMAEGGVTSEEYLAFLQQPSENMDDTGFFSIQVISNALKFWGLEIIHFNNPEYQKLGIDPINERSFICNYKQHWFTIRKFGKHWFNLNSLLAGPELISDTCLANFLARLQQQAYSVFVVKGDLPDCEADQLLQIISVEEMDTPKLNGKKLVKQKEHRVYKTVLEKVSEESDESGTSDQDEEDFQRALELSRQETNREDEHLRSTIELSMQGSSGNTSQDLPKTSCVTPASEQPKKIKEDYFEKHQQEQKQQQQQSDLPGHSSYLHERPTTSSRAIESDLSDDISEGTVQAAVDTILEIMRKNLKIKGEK
Description: as §1

JosD1 = JosD1 (Homo sapiens, UniProt Q15040); assay: as above; format: biochemical; conditions: DUB 10 nM; signal at 30 minutes; Ub-LUC 100 nM, DUB-Glo substrate 20 μM, Ub-AMC/Ub-rho 250 nM
Description: as §1

JosD2 = biological target: T3, JosD2 (Homo sapiens, UniProt Q8TAC2); assay: as above; format: biochemical; conditions: DUB 10 nM; signal at 30 minutes; Ub-LUC 100 nM, DUB-Glo substrate 20 μM, Ub-AMC/Ub-rho 250 nM
T3 sequence (Q8TAC2 1-188): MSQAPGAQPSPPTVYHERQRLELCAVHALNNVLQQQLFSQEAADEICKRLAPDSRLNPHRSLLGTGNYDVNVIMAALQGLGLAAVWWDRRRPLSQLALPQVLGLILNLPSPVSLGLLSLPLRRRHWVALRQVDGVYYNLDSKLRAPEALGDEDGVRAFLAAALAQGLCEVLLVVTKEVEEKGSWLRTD
Description: as §1

USP14 = USP14 (Homo sapiens, UniProt P54578); assay: as above; format: biochemical; conditions: DUB 10 nM; signal at 30 minutes; Ub-LUC 100 nM, DUB-Glo substrate 20 μM, Ub-AMC/Ub-rho 250 nM
Description: as §1

SENP2 = SENP2 (Homo sapiens, UniProt Q9HC62); conditions: enzyme 200 pM; 30 minutes; FIG. 6
Description: (§2) The hSUMO2-amino-luciferin substrate was compared to the Z-Arg-Leu-Arg-Gly-Gly (SEQ ID NO: 1)-amino-luciferin substrate (Promega DUB-Glo™ substrate) to determine the specificity and limit of detection of the activities of six (6) different isopeptidases (USP34, USP7, USP8, SENP1, SENP2, and SENP6). For all enzymes, these two substrates were tested in parallel using the DUB-Glo™ assay system (Promega) according to the manufacturer's instructions. All enzymes were diluted into 50 mM HEPES, pH 7.5, 10 mM DTT, 0.1% Prionex® (Sigma-Aldrich). For testing Z-Arg-Leu-Arg-Gly-Gly (SEQ ID NO: 1)-amino-luciferin, final isopeptidase concentrations for all enzymes were equal to approximately 70 pM to 50 nM. For testing hSUMO2-amino-luciferin, final isopeptidase concentrations for all enzymes were equal to approximately 70 pM to 50 nM. […] The signal in relative luminescence units (RLUs) was measured at 30 minutes from reaction assembly on an EnVision™ multi-label plate reader (Perkin Elmer). The signal to background ratio (S/B) was calculated as (maximum signal/(signal in absence of enzyme) plus or minus the corrected standard deviation of triplicate measurements.

SENP6 = SENP6 (Homo sapiens, UniProt Q9GZR1); conditions: enzyme 200 pM; 30 minutes; FIG. 6
Description: as §2

USP14, sequence (P54578 whole entry, species assumed): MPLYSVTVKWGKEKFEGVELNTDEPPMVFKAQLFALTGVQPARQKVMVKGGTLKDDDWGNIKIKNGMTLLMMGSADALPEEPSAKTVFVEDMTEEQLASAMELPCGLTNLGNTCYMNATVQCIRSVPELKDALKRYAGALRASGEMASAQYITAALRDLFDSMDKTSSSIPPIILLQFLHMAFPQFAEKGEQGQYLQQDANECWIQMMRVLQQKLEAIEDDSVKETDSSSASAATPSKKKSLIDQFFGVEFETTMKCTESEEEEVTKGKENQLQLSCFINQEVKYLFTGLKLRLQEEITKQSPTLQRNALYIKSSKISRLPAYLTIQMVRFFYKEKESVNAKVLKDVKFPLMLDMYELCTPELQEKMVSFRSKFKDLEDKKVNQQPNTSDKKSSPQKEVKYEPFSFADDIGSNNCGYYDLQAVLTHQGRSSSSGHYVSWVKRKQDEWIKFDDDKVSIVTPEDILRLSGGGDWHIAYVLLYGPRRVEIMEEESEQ
SENP2, sequence (Q9HC62 whole entry, species assumed): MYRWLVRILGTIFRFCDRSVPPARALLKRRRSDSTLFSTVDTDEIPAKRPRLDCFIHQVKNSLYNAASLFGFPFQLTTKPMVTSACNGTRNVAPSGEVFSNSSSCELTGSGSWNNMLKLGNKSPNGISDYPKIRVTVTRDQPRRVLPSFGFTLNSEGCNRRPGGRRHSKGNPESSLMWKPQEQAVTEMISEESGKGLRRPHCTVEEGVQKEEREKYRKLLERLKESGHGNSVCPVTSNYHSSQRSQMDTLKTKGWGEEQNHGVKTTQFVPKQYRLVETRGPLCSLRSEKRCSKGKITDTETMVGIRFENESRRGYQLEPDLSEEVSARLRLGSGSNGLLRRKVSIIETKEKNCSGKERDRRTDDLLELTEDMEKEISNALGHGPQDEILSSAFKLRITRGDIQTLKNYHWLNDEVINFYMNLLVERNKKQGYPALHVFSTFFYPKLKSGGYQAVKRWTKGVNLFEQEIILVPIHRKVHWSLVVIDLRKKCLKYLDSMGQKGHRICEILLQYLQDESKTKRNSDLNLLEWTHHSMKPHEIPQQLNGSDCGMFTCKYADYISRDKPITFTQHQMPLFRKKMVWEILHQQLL
SENP6, sequence (Q9GZR1 whole entry, species assumed): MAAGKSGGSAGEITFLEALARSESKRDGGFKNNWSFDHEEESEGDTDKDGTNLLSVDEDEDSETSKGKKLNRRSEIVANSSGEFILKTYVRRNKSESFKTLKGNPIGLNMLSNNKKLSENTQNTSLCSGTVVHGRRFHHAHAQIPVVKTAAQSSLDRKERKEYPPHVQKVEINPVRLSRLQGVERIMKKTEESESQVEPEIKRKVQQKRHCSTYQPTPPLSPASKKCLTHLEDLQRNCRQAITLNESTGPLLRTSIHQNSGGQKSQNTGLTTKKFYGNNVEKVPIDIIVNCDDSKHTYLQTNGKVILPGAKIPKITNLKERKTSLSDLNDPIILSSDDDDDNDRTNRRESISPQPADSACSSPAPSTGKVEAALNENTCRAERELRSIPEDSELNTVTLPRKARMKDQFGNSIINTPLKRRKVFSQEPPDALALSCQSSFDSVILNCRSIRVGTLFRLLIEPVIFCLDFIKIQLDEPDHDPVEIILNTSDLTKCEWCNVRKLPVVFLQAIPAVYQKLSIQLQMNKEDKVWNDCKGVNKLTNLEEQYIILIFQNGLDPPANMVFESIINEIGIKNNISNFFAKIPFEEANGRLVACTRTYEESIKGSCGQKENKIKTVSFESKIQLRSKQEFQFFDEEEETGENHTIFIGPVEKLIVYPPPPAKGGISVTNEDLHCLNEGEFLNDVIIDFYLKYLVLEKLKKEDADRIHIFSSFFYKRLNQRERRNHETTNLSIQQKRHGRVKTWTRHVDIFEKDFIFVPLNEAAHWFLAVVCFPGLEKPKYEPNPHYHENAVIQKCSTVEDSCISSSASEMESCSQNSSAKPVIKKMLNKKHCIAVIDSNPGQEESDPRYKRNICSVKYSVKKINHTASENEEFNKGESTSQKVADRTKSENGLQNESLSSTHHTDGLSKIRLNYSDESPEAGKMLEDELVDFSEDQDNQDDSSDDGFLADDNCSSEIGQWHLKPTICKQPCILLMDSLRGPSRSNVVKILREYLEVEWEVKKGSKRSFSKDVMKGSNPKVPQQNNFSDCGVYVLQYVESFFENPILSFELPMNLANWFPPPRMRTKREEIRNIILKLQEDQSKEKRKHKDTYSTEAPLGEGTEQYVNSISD

Signal to Background value (AMSH)	Signal to Background value (JosD1)	Signal to Background value (JosD2)	Signal to Background value (USP14)	signal (RLU, S/B) (SENP2)	signal (RLU, S/B) (SENP6)	Substance	Signal to Background value (Ataxin3-like)
1.4	1.3	2.1	1.6	gave signals	gave signals	Z-Arg-Leu-Arg-Gly-Gly (SEQ ID NO: 1)-amino-luciferin [DUB-glo ™]	1.5
16	74	760	6.0	–	–	Ub(1-76)-aminoluciferin [Ub-LUC]	120
